{"source": "patent US20260191889A1", "about": "“TREHALOSE FOR TREATING HUNTINGTON'S DISEASE” (GLD Debt Acquisition 2025-1, priority 2022, published 2026)", "key": {"[1]": {"test_system": "transgenic R6/2 mice (a disease model for Huntington's Disease)", "assay": "Lifespan of R6/2 mice after treatment with MT", "format": "in vivo, Mus musculus", "details": "MT 5 g/kg i.p. 5 times per week from 4 weeks of age, vehicle 101, wild-type 181", "protocol": "The objective of this study was to assess the effects of molecular trehalose (MT) in the R6/2 mouse model of Huntington's disease through intraperitoneal (IP) injections. Treated mice […] were administered (i.e. dosed) with a MT intraperitoneal (i.p.) injection. Mice were weighed twice per week until 8 weeks post infusion i.e., 12 weeks of age or followed until survival. At a minimum of 8 weeks post infusion or MT dosing, mice were sacrificed 30 minutes after last MT, and the following tissues were collected: blood, brain, and tail. Immunohistochemistry analysis for GFAP, Iba1, EM-47 and Darpp-32 were performed on brain hemisphere 1 samples and the amount of MT in blood and brain hemisphere 2 samples was determined.\nMale R6/2 (B6CBA-Tg(HDexon1)62Gpb/3J) (The Jackson Laboratory, USA, JAX stock: 006494) mice (Mus musculus) between the ages of 28-33 days were used in this study. […]\nEleven male mice were treated with trehalose 5 g/kg (i.p. injection, 25 ml/kg, trehalose dose formulation concentration: 0.2 g/ml, with active trehalose corresponding to 5.252 g/kg of trehalose dihydrate), 5 times per week starting at 4 weeks of age. […] Mice were euthanized at 8 weeks after first trehalose dose (12 weeks of age, n=8). n=3 mice/group were monitored until survival. […]"}, "[2]": {"test_system": "transgenic R6/2 mice (a disease model for Huntington's Disease)", "assay": "Body weight of R6/2 mice after treatment with MT", "format": "in vivo, Mus musculus", "details": "MT 5 g/kg i.p. 5 times per week, average±standard error (±0.6), vehicle 16.5, wild-type 30.7", "protocol": "Eleven male mice were treated with trehalose 5 g/kg (i.p. injection, 25 ml/kg, trehalose dose formulation concentration: 0.2 g/ml, with active trehalose corresponding to 5.252 g/kg of trehalose dihydrate), 5 times per week starting at 4 weeks of age. There were a total of 41 doses or doses stopped when mice were euthanized. Mice were euthanized at 8 weeks after first trehalose dose (12 weeks of age, n=8). n=3 mice/group were monitored until survival.\nBody Weights—Body weights were monitored twice per week throughout the study for all animals. Pre-trehalose treatment onset baseline body weight was used to assign the animals to experimental groups. Terminal body weights were not registered from animals found dead or euthanized moribund.\nMT was administered to mice i.p. 5 times per week (from Monday to Friday). Dose volume was 25 ml/kg. Dose was 5 g/kg. Pure trehalose dose formulation concentration was 0.2 g/ml. The last dose of animals euthanized at 8 weeks post infusion (age week 12) was 30 min prior to terminal sampling.\nBody Weight—Comparisons between two groups used a two-way Mixed-effects model (Mixed Anova) with Geisser-Greenhouse correction (not assuming sphericity), followed by Fisher's LSD test between the two groups performed for each time point. Time, group and the interaction of Time×Group were fixed effects, and the individual subject was the random effect. […]"}, "DARPP-32": {"test_system": "DARPP-32", "assay": "DARPP-32 immunohistochemistry in brain of R6/2 mice", "format": "in vivo, Mus musculus", "details": "MT-treated vs untreated transgenic R6/2 mice, FIG. 1", "protocol": "(§1) Cryosectioning—Cryosectioning was performed to striatal (left hemisphere) (Bregma +1.30 mm to −0.8 mm from Bregma, containing the infusion site at +0.5 mm) region and sections were collected as 20 μm thick sections on slides. A series of sections consisted of 8 sections with an interval of 300 μm in-between each section. A total of 5 series were collected from the target region using subsequent slides. For phase I, Series 1 & 3 were used for IHC analysis of EM48, series 2 was used for Darpp-32, series 4 was used for Iba1+GFAP and Series 5 was used for piloting and negative controls. For phase II, A total of 6 series were collected from the target region using subsequent slides. Series 1 was used for IHC analysis of EM48, series 2 was used for Darpp-32, series 4 was used for Iba1+GFAP. Series 5 was collected as spare samples and series 6 was used for piloting and negative controls. […]\n(§2) Antigen expression analyses—The stained sections were scanned with the Olympus VS120 slide scanner using the proper fluorescent or brightfield channels. The regions of interest (ROIs) (striatum/cortex) were analyzed for positive immunostaining of the respective targets (EM48, DARPP-32, GFAP and Iba1) applying the VIS—Visiopharm Integrator System (Visiopharm, Denmark).\n(§3) Positive staining of the respective antigens was detected by applying a suitable threshold which recognizes only truly positive staining. […]"}, "[3]": {"test_system": "EM48 (huntingtin protein; mHTT aggregates)", "assay": "EM48 immunohistochemistry in brain of R6/2 mice", "format": "in vivo, Mus musculus", "details": "MT-treated vs untreated transgenic R6/2 mice", "protocol": "as §1, §2, §3"}, "GFAP": {"test_system": "GFAP", "assay": "GFAP immunohistochemistry in brain of R6/2 mice", "format": "in vivo, Mus musculus", "details": "MT-treated vs untreated transgenic R6/2 mice, FIG. 4", "protocol": "as §1, with “Iba1+GFAP.” for “Iba1+GFAP. Series 5 was collected as spare samples and series 6 was used for piloting and negative controls.”\n(§4) For fluorescence immunohistochemistry (GFAP and Iba-1) the following general protocol was applied: […]\nas §2, §3"}, "Iba-1": {"test_system": "Iba-1", "assay": "Iba-1 immunohistochemistry in brain of R6/2 mice", "format": "in vivo, Mus musculus", "details": "MT-treated vs untreated transgenic R6/2 mice, FIG. 5", "protocol": "as §1, with “Iba1+GFAP.” for “Iba1+GFAP. Series 5 was collected as spare samples and series 6 was used for piloting and negative controls.”\nas §4, §2, §3"}, "[4]": {"assay": "Safety profile from previous clinical trials of trehalose injection", "format": "in vivo, human", "details": "metabolized by trehalase enzymes into 2 glucose molecules", "from_the_text": "Risks of study participation also includes the risk of an infusion reaction or infusion site reactions. […] If needed, the use of an implanted venous access device (i.e., Mediport) or percutaneous indwelling catheter is permitted; however, if small caliber indwelling catheters in peripheral vessels is required, they should be for single use only. Additional risks include those risks related to venipuncture (e.g., hematoma, bleeding, pain, infection), which are low, and the risk of progression of disease for participants assigned to receive."}, "[5]": {"test_system": "neurofilament light chain (NfL) protein", "assay": "NfL concentration in blood serum of a subject with HD on weekly IV trehalose", "format": "in vivo, human", "details": "subject 02-001 (HD)", "protocol": "This study consisted of a 2-week screening period, a 24-week open-label treatment period, and a 2-week safety follow-up period. Eligible subjects received substantially purified trehalose, administered as a once weekly IV infusion over 60 minutes±5 min for volumes≤600 mL or 90 minutes±5 min for volumes>600 mL. The total volume of the infusion was based on the weight of the subject and a dose of 0.75 g trehalose per kg of subject weight (g/kg). An additional 52 weeks of open-label trehalose treatment was planned for consenting subjects who were determined to be medically appropriate after their completion of the primary 24-week open-label treatment period.\nBlood samples were obtained from subjects at the screening/baseline and during week 12 and week 24 for analyses. Blood serum was to determine the concentration of neurofilament light chain (NfL) protein in blood serum before and after initiation of trehalose treatment. Nfl concentrations in blood serum were measured using a Simoa® NF-light™ Advantage Kit by Quanterix. Higher concentrations of Nfl in subject blood serum is an indicator of clinical severity of HD, and lower concentrations compared to concentrations of the same subject indicates reversal or slowing of HD progression."}, "[6]": {"test_system": "Huntington's disease (HD)", "assay": "Clinical scores of a subject with HD on weekly IV trehalose", "format": "in vivo, human", "protocol": "This study consisted of a 2-week screening period, a 24-week open-label treatment period, and a 2-week safety follow-up period. Eligible subjects received substantially purified trehalose, administered as a once weekly IV infusion over 60 minutes±5 min for volumes≤600 mL or 90 minutes±5 min for volumes>600 mL. The total volume of the infusion was based on the weight of the subject and a dose of 0.75 g trehalose per kg of subject weight (g/kg). An additional 52 weeks of open-label trehalose treatment was planned for consenting subjects who were determined to be medically appropriate after their completion of the primary 24-week open-label treatment period. The primary study objectives were to determine safety and tolerability, and treatment responses associated with trehalose administered to subjects with HD. Safety and tolerability were determined by incidences of treatment-emergent adverse events (TEAEs) and serious adverse events ([…]), including clinically significant laboratory or diagnostic testing abnormalities. Laboratory samples, electrocardiograms (ECGs), and a rating on the Columbia Suicide Severity Rating Scale (C-SSRS) were obtained from the subject at the screening/baseline and during week 4, week 12, and week 24. Physical and neurological examinations of the subject were conducted at the screening/baseline and during week 12 and week 24. Vital signs and adverse events (AEs) of the subject were obtained at visits for study drug infusions and any unscheduled visits. In addition, AEs of the subject were obtained by scheduled or unscheduled telephone communications. Treatment responses were determined by assessments and comparative analyses of the following clinical scores that were obtained at the screening/baseline and follow-up study visits. All subjects completed the Patient Global Impression of Change (PGIC), the Clinical Global Impression of Change (CGIC), and the Clinical Global Impression of Severity (CGI-S) during week 4, week 8, week 12, week 18, and week 24. In addition, all participants completed the Patient's Global Impression of Severity (PGI-S), EQ Visual Analog Scale (EQ-VAS), and the CGI-S on day 1 and during week 4, week 8, week 12, week 18, and week 24. At the screening/baseline and during week 4, week 8, week 12, week 18, and week 24, subjects completed the UHDRS-TFC and the UHDRS-Independence Scale."}, "[7]": {"details": "administered orally in humans; cleaved by gut trehalase; cited from earlier work"}, "[8]": {"details": "3 months (12 weeks), 0.75 g/kg IV once weekly"}, "[9]": {"details": "after 3 months (12 weeks), 0.75 g/kg IV once weekly"}}, "data": [{"smiles": "OC[C@H]1O[C@H](O[C@H]2O[C@H](CO)[C@@H](O)[C@H](O)[C@H]2O)[C@H](O)[C@@H](O)[C@@H]1O", "note": "[MT, trehalose]", "values": [{"measurement": "median lifespan", "setting": "[1]", "result": 119, "unit": "days"}, {"measurement": "average final body weight", "setting": "[2]", "result": 21.5, "unit": "g"}, {"measurement": "levels of DARPP-32 in the striatum (IHC, positive cells/mm^2)", "setting": "DARPP-32", "result": "lower levels"}, {"measurement": "levels of EM48 in the cortex (IHC, positive cells/mm^2)", "setting": "[3]; FIG. 2", "result": "lower levels"}, {"measurement": "levels of EM48 in the striatum (IHC, positive cells/mm^2)", "setting": "[3]; FIG. 3", "result": "lower levels"}, {"measurement": "levels of GFAP in the striatum (IHC, % staining area)", "setting": "GFAP", "result": "lower levels"}, {"measurement": "levels of Iba-1 in the striatum (IHC, % staining area)", "setting": "Iba-1", "result": "lower levels"}, {"measurement": "active metabolites", "setting": "[4]", "result": "no active metabolites"}, {"measurement": "NfL Protein Concentration", "setting": "[5]; Screening / Day 0 (baseline before treatment)", "result": 21.20, "unit": "pg/mL"}, {"measurement": "NfL Protein Concentration", "setting": "[5]; Week 12 / Day 84, 0.75 g/kg IV once weekly", "result": 17.55, "unit": "pg/mL"}, {"measurement": "NfL Protein Concentration", "setting": "[5]; Week 24 / Day 168, 0.75 g/kg IV once weekly", "result": 19.95, "unit": "pg/mL"}, {"measurement": "CGI-S rating", "setting": "[6]; 3 months (12 weeks)", "result": "A Little Better"}, {"measurement": "CGIC rating", "setting": "[6]; 3 months (12 weeks)", "result": "A Little Better"}, {"measurement": "change in the UHDRS Functional Capacity", "setting": "[6]; [8]", "result": "no change"}, {"measurement": "change in the UHDRS Independence Scale", "setting": "[6]; [8]", "result": "no change"}, {"measurement": "Global impression of Health on a Visual Analog Scale", "setting": "[6]; [9]", "result": 90}, {"measurement": "mini-mental status examination (MMSE) score", "setting": "[6]; [9]", "result": 27}, {"measurement": "Global impression of Health on a Visual Analog Scale", "setting": "[6]; baseline", "result": 70}, {"measurement": "mini-mental status examination (MMSE) score", "setting": "[6]; baseline", "result": 26}, {"measurement": "trehalose reaching systemic circulation", "setting": "[7]", "result": "< 0.5", "unit": "%"}]}]}
